Results from patent publication US10815238B2, “Antimicrobial compounds and methods of making and using the same” (BIOVERSYS AG, priority 2013, dated 2020).

Tests used:
[1] = system: Eschericia coli (E. coli) strain ATCC25922; assay: Standard microdilution assay, MIC against E. coli ATCC25922; format: cell-based; conditions: Escherichia coli; E. coli strain ATCC25922, standard microdilution assay; cutoff 16 micrograms/mL; read-out: MIC E. Coli
In short: (§1)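 MIC determined by broth microdilution following CLSI protocols, with reference strains run in parallel for quality control. Activity scored +/− at a cutoff of 16 micrograms/mL.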

[2] = system: Staphylococcus aureus (S. aureus) 11540 strain; assay: Standard microdilution assay, MIC against S. aureus 11540; format: cell-based; conditions: S. aureus 11540 strain, standard microdilution assay, cutoff 16 micrograms/mL, read-out: MIC S. aureus
In short: as §1

Row | MIC [1] | MIC [2] | Structure (SMILES)
1 | < 16 µg/mL | < 16 µg/mL | C[C@H](N)CCCc1cc(OC(F)(F)F)c(F)c(-c2cc3cn(-c4ccc([C@@H]5CCC[C@@H](CCN)N5)cc4)c(=O)nc3[nH]2)c1 [Compound 429]
2 | > 16 µg/mL | > 16 µg/mL | C[C@H](N)CCCc1cc(Cl)c(F)c(-c2cc3cn(-c4ccc([C@@H]5CCC[C@@H](CNCc6nccn6C)N5)cc4)c(=O)nc3[nH]2)c1 [Compound 551]
3 | < 16 µg/mL | < 16 µg/mL | N=C(N)NCC[C@@H]1CCC[C@@H](c2ccc(-n3cc4cc(-c5ccc(S(=O)(=O)NC6CCN(C(=N)N)CC6)cc5)[nH]c4nc3=O)cc2)N1 [Compound 494]
4 | < 16 µg/mL | < 16 µg/mL | C[C@H](N)CCCc1cc(Cl)c(F)c(-c2cc3cn(-c4ccc([C@@H]5CCC[C@@H](CCN)N5)cc4)c(=O)nc3[nH]2)c1 [Compound 421]
5 | < 16 µg/mL | < 16 µg/mL | C=C[C@H](CCNC(=N)N)N[C@@H](C)c1ccc(-n2cc3cc(-c4cc(CCC[C@H](C)N)cc(Cl)c4F)[nH]c3nc2=O)cc1 [Compound 382]
6 | < 16 µg/mL | < 16 µg/mL | C[C@H](N)CCCc1cc(OC(F)(F)F)c(F)c(-c2cc3cn(-c4ccc(CNCC[C@@H](CN)NC(=N)N)cc4)c(=O)nc3[nH]2)c1 [Compound 376]
7 | > 16 µg/mL | > 16 µg/mL | C[C@H](N)CCCc1cc(Cl)c(F)c(-c2cc3cn(-c4ccc([C@@H]5CCC[C@@H](Cc6cnn[nH]6)N5)cc4)c(=O)nc3[nH]2)c1 [Compound 489]
8 | < 16 µg/mL | < 16 µg/mL | C[C@H](N)CCCc1cc(Cl)c(F)c(-c2cc3cn(-c4ccc([C@H](C)N(C=O)CCCNC(=N)N)cc4)c(=O)nc3[nH]2)c1 [Compound 400]
9 | < 16 µg/mL | < 16 µg/mL | C[C@H](N)CCCc1cc(Cl)c(F)c(-c2cc3cn(-c4ccc([C@@H]5COC[C@@H](CCN)N5)cc4)c(=O)nc3[nH]2)c1 [Compound 354]
10 | < 16 µg/mL | < 16 µg/mL | C[C@H](NCCCNC(=N)N)c1ccc(-n2cc3cc(-c4cc(CCC[C@@H](N)COP(=O)(O)O)cc(Cl)c4F)[nH]c3nc2=O)cc1 [Compound 487]
11 | < 16 µg/mL | < 16 µg/mL | C[C@H](NCCCNC(=N)N)c1ccc(-n2cc3cc(-c4cc(CCC[C@H](N)CO)cc(Cl)c4F)[nH]c3nc2=O)cc1 [Compound 476]
12 | > 16 µg/mL | > 16 µg/mL | C[C@@H](CN)CN1CC[C@@H](c2cc3cn(-c4ccc(C(=N)NC5CCCC5)cc4)c(=O)nc3[nH]2)C1 [Compound 580]
13 | < 16 µg/mL | < 16 µg/mL | C[C@H](N)CCCc1cc(Cl)c(F)c(-c2cc3cn(-c4ccc([C@@H]5CCO[C@@H](CCCN)C5)cc4)c(=O)nc3[nH]2)c1 [Compound 522]
14 | < 16 µg/mL | < 16 µg/mL | C[C@H](N)CCCc1cc(Cl)c(F)c(-c2cc3cn(-c4ccc(CN[C@H](CCNC(=N)N)CNc5ncc[nH]5)cc4)c(=O)nc3[nH]2)c1 [Compound 536]
15 | < 16 µg/mL | < 16 µg/mL | C[C@H](N)CCCc1cc(Cl)c(F)c(-c2cc3cn(-c4ccc([C@@H]5CC(CCN)CN5)cc4)c(=O)nc3[nH]2)c1 (some centres unmarked) [Compound 406]
16 | > 16 µg/mL | > 16 µg/mL | C[C@H](N)CCCc1cc(Cl)c(F)c(-c2cc3cn(-c4ccc([C@@H]5CCC[C@@H](CCc6c[nH]nn6)N5)cc4)c(=O)nc3[nH]2)c1 [Compound 543]
17 | < 16 µg/mL | < 16 µg/mL | C[C@H](N)CCCc1cc(Cl)c(F)c(-c2cc3cn(-c4ccc([C@@H]5CCC[C@@H](CCc6c[nH]cn6)N5)cc4)c(=O)nc3[nH]2)c1 [Compound 549]
18 | < 16 µg/mL | < 16 µg/mL | C[C@H](N)CCCc1cc(Cl)c(F)c(-c2cc3cn(-c4ccc([C@H]5CCO[C@H](CCNC(=N)N)C5)cc4)c(=O)nc3[nH]2)c1 [Compound 555]
19 | < 16 µg/mL | < 16 µg/mL | C[C@H](N)CCCc1cc(Cl)c(F)c(-c2cc3cn(-c4ccc([C@@H]5CCC[C@H](CCNC(=N)N)N5)cc4)c(=O)nc3[nH]2)c1 [Compound 438]
20 | > 16 µg/mL | > 16 µg/mL | C[C@H](N)CCCc1cc(Cl)c(F)c(-c2cc3cn(-c4ccc([C@H]5COC[C@@H](c6c[nH]nn6)N5)cc4)c(=O)nc3[nH]2)c1 [Compound 391]
21 | < 16 µg/mL | < 16 µg/mL | C[C@H](N)CCCc1cc(Cl)c(F)c(-c2cc3cn(-c4ccc([C@@H](N)CCCNC(=N)N)cc4)c(=O)nc3[nH]2)c1 [Compound 412]
22 | > 16 µg/mL | > 16 µg/mL | C[C@H](N)CCCc1cc(Cl)c(F)c(-c2cc3cn(-c4ccc([C@@H]5CCC[C@@H](CCn6ncoc6=O)N5)cc4)c(=O)nc3[nH]2)c1 [Compound 545]
23 | < 16 µg/mL | < 16 µg/mL | C[C@H](N)CCCc1cc(OC(F)(F)F)c(F)c(-c2cc3cn(-c4ccc([C@H]5CC[C@H](CCNC(=N)N)N5)cc4)c(=O)nc3[nH]2)c1 [Compound 352]
24 | > 16 µg/mL | < 16 µg/mL | C[C@H](N)CCCc1cc(Cl)c(F)c(-c2cc3cn(-c4ccc([C@@H]5CCC[C@@H](Cc6cnc(N)s6)N5)cc4)c(=O)nc3[nH]2)c1 [Compound 538]
25 | < 16 µg/mL | < 16 µg/mL | N=C(N)N[C@H](CN)CCNCc1ccc(-n2cc3cc(-c4cc(CCC[C@@H](N)CO)cc(Cl)c4F)[nH]c3nc2=O)cc1 [Compound 393]

Row | MIC [1] | MIC [2] | Structure (SMILES)
26 | < 16 µg/mL | < 16 µg/mL | C[C@H](N)CCCc1cc(OC(F)(F)F)c(F)c(-c2cc3cn(-c4ccc(CN5CC[C@H](CN6CCOCC6)NC5=N)cc4)c(=O)nc3[nH]2)c1 [Compound 419]
27 | < 16 µg/mL | < 16 µg/mL | C[C@H](N)CCCc1cccc(-c2cc3cn(-c4ccc([C@H](C)NCCCNC(=N)N)cc4)c(=O)nc3[nH]2)c1 [Compound 521]
28 | < 16 µg/mL | < 16 µg/mL | C[C@H](N)CCCc1cc(Cl)c(F)c(-c2cc3cn(-c4ccc(CO[C@H](CCNC(=N)N)CNc5nccs5)cc4)c(=O)nc3[nH]2)c1 [Compound 534]
29 | < 16 µg/mL | < 16 µg/mL | C[C@H](N)CCCc1cc(Cl)c(F)c(-c2cc3cn(-c4ccc(CNC5CC(NC(=N)N)C5)cc4)c(=O)nc3[nH]2)c1 (some centres unmarked) [Compound 563]
30 | < 16 µg/mL | < 16 µg/mL | C=C[C@H](C[C@@H](C)NCc1ccc(-n2cc3cc(-c4cc(CCC[C@H](C)N)cc(OC(F)(F)F)c4F)[nH]c3nc2=O)cc1)NC(=N)N [Compound 372]
31 | < 16 µg/mL | < 16 µg/mL | C[C@H](N)CCN1CC[C@@H](c2cc3cn(-c4ccc(CNCCCNC(=N)N)cc4)c(=O)nc3[nH]2)C1 [Compound 572]
32 | < 16 µg/mL | < 16 µg/mL | C[C@H](N)CCCc1cc(Cl)c(F)c(-c2cc3cn(-c4ccc(C(=O)NCCCNC(=N)N)cc4)c(=O)nc3[nH]2)c1 [Compound 459]
33 | < 16 µg/mL | < 16 µg/mL | C[C@H](N)CCCc1cc(Cl)c(F)c(-c2cc3cn(-c4ccc([C@H](C)NCC[C@@H](CNC(=O)CN)NC(=N)N)cc4)c(=O)nc3[nH]2)c1 [Compound 422]
34 | < 16 µg/mL | < 16 µg/mL | C[C@H](N)CCCc1cc(Cl)c(F)c(-c2cc3cn(-c4ccc([C@@H]5CCC[C@@H](CCNC(=N)N)N5)cc4)c(=O)nc3[nH]2)c1 [Compound 420]
35 | > 16 µg/mL | > 16 µg/mL | C[C@H](N)CCCc1cc(Cl)c(F)c(-c2cc3cn(-c4ccc([C@@H]5CCC[C@@H](CCC(=O)O)N5)cc4)c(=O)nc3[nH]2)c1 [Compound 514]
36 | < 16 µg/mL | < 16 µg/mL | COC[C@@H](CCNC(=N)N)NCc1ccc(-n2cc3cc(-c4cc(CCC[C@H](C)N)cc(OC(F)(F)F)c4F)[nH]c3nc2=O)cc1 [Compound 351]
37 | < 16 µg/mL | < 16 µg/mL | C[C@H](N)CCCc1cccc(-c2cc3cn(-c4ccc(CNCCCNC(=N)N)cc4)c(=O)nc3[nH]2)c1 [Compound 520]
38 | < 16 µg/mL | < 16 µg/mL | C[C@H](N)CCCc1cc(Cl)c(F)c(-c2cc3cn(-c4ccc([C@@H]5COC[C@@H](CCNC(=N)N)N5)cc4)c(=O)nc3[nH]2)c1 [Compound 353]
39 | > 16 µg/mL | > 16 µg/mL | C[C@H](N)CCCc1cc(OC(F)(F)F)c(F)c(-c2cc3cn(-c4ccc([C@@H]5COC[C@@H](CO)N5)cc4)c(=O)nc3[nH]2)c1 [Compound 453]
40 | > 16 µg/mL | > 16 µg/mL | N=C(NC1CCCC1)c1ccc(-n2cc3cc(-c4ccc(S(=O)(=O)NC5CCNCC5)cc4)[nH]c3nc2=O)cc1 [Compound 504]
41 | > 16 µg/mL | > 16 µg/mL | CNC(=O)CC[C@@H]1CCC[C@@H](c2ccc(-n3cc4cc(-c5cc(CCC[C@H](C)N)cc(Cl)c5F)[nH]c4nc3=O)cc2)N1 [Compound 513]
42 | < 16 µg/mL | < 16 µg/mL | C[C@H](N)CCCc1cc(OC(F)(F)F)c(F)c(-c2cc3cn(-c4ccc(C(O)[C@@H]5C[C@@H](NC(=N)N)CN5)cc4)c(=O)nc3[nH]2)c1 (some centres unmarked) [Compound 448]
43 | < 16 µg/mL | < 16 µg/mL | C[C@H](N)CCCc1cc(OC(F)(F)F)c(F)c(-c2cc3cn(-c4ccc([C@@H](C)NCCCNC(=N)N)cc4)c(=O)nc3[nH]2)c1 [Compound 321]
44 | > 16 µg/mL | < 16 µg/mL | CC1=NCC[C@@H]2CCC[C@@H](c3ccc(-n4cc5cc(-c6cc(CCC[C@H](C)N)cc(Cl)c6F)[nH]c5nc4=O)cc3)N12 [Compound 568]
45 | < 16 µg/mL | < 16 µg/mL | C[C@H](N)CCCc1cc(OC(F)(F)F)c(F)c(-c2cc3cn(-c4ccc(C(=O)NCCCNC(=N)N)cc4)c(=O)nc3[nH]2)c1 [Compound 461]
46 | < 16 µg/mL | < 16 µg/mL | C[C@H](N)CCCc1cc(Cl)c(F)c(-c2cc3cn(-c4ccc([C@@H]5CCO[C@@H](CCNC(=N)N)C5)cc4)c(=O)nc3[nH]2)c1 [Compound 526]
47 | < 16 µg/mL | < 16 µg/mL | C[C@H](N)CCCc1cc(Cl)c(F)c(-c2cc3cn(-c4ccc(CN[C@H](CCN)CNc5ncc[nH]5)cc4)c(=O)nc3[nH]2)c1 [Compound 537]
48 | < 16 µg/mL | < 16 µg/mL | C[C@H](N)CCCc1cc(Cl)c(F)c(-c2cc3cn(-c4ccc([C@H]5CCO[C@H](CCN)C5)cc4)c(=O)nc3[nH]2)c1 [Compound 554]
49 | < 16 µg/mL | < 16 µg/mL | C[C@H](N)CCCc1cc(Cl)c(F)c(-c2cc3cn(-c4ccc(CN[C@H](C)C[C@@H](CCO)NC(=N)N)cc4)c(=O)nc3[nH]2)c1 [Compound 381]
